Legend:
Balb/c mice = assay: LPS-induced neutrophil accumulation in mice; type: in vivo
Procedure: Non-fasted Balb/c mice were dosed by the intra tracheal route with either vehicle, or the test substance at the indicated times (within the range 2-8 hr) before stimulation of the inflammatory response by application of an LPS challenge. At T=0, mice were placed into an exposure chamber and exposed to LPS (7.0 mL, 0.5 mg/mL solution in PBS) for 30 min). After a further 8 hr the animals were anesthetized, their tracheas cannulated and BALF extracted by infusing and then withdrawing from their lungs 1.0 mL of PBS via the tracheal catheter. Total and differential white cell counts in the BALF samples were measured using a Neubaur haemocytometer. Cytospin smears of the BALF samples were prepared by centrifugation at 200 rpm for 5 min at RT and stained using a DiffQuik stain system (Dade Behring). Cells were counted using oil immersion microscopy. Data for neutrophil numbers in BAL are shown as mean±S.E.M. (standard error of the mean). The percentage inhibition of neutrophil accumulation was calculated for each treatment relative to vehicle treatment.

A/J mice = assay: Cigarette smoke model; type: in vivo
Procedure: A/J mice (males, 5 weeks old) were exposed to cigarette smoke (4% cigarette smoke, diluted with air) for 30 min/day for 11 days using a Tobacco Smoke Inhalation Experiment System for small animals (Model SIS-CS; Sibata Scientific Technology, Tokyo, Japan). Test substances were administered intra-nasally (35 μL of solution in 50% DMSO/PBS) once daily for 3 days after the final cigarette smoke exposure. At 12 hr after the last dosing, each of the animals was anesthetized, the trachea cannulated and bronchoalveolar lavage fluid (BALF) was collected. The numbers of alveolar macrophages and neutrophils were determined by FACS analysis (EPICS® ALTRA II, Beckman Coulter, Inc., Fullerton, Calif., USA) using anti-mouse MOMA2 antibody (macrophage) or anti-mouse 7/4 antibody (neutrophil). BALF was centrifuged and the supernatant was collected. The level of keratinocyte chemoattractant (KC; CXCL1) in BALF was quantitated using a Quentikine® mouse KC ELISA kit (R&D systems, Inc., Minneapolis, Minn., USA).

With `Cc1ccc(-n2nc(C(C)(C)C)cc2NC(=O)Nc2ccc(Oc3ccnc(Nc4ccccc4)n3)c3ccccc23)cc1` [Example 1, 1-(3-(tert-Butyl)-1-(p-tolyl)-1H-pyrazol-5-yl)-3-(4-(2-(phenylamino)pyrimidin-4-yloxy)naphthalen-1-yl)urea] the LPS-induced neutrophil accumulation (Balb/c mice) was “dose dependent inhibition”, the “cigarette smoke induced CXCL1 (KC) production in BALF” value (A/J mice) was “inhibited” and the “macrophage accumulation in BALF induced by cigarette smoke” value (A/J mice) was “dose-dependent inhibition”. For the same compound, the “neutrophil accumulation in BALF induced by cigarette smoke” value (A/J mice) was “dose-dependent inhibition”.
